Test results taken from the NIST ThermoML archive (doi:10.1021/je800571y).

Assay: xn = mol fraction of the nth substance listed
Settings: 101 kPa, Liquid

CCC(C)=O [butanone] + CC(C)CO
Settings | mass density, 293.15 K [kg/m3] | mass density, 298.15 K [kg/m3] | mass density, 303.15 K [kg/m3] | mass density, 308.15 K [kg/m3] | mass density, 313.15 K [kg/m3] | viscosity, 293.15 K [mPa·s] | viscosity, 298.15 K [mPa·s] | viscosity, 303.15 K [mPa·s] | viscosity, 308.15 K [mPa·s] | viscosity, 313.15 K [mPa·s]
x1 = 0.0684 | 801.9 | 797.93 | 794.21 | 790.04 | 786.54 | 3.138 | 2.611 | 2.24 | 1.913 | 1.625
x1 = 0.1365 | 802.11 | 798.06 | 794.25 | 790.03 | 786.39 | 2.429 | 2.054 | 1.78 | 1.534 | 1.33
x1 = 0.2044 | 802.32 | 798.18 | 794.29 | 790 | 786.22 | 1.862 | 1.566 | 1.404 | 1.193 | 1.074
x1 = 0.2721 | 802.52 | 798.29 | 794.32 | 789.98 | 786.06 | 1.426 | 1.206 | 1.104 | 0.9579 | 0.8538
x1 = 0.3395 | 802.72 | 798.41 | 794.36 | 789.95 | 785.89 | 1.111 | 0.9449 | 0.8637 | 0.7612 | 0.6894
x1 = 0.4066 | 802.92 | 798.52 | 794.39 | 789.92 | 785.73 | 0.8561 | 0.7513 | 0.676 | 0.6222 | 0.5674
x1 = 0.4735 | 803.13 | 798.63 | 794.42 | 789.89 | 785.56 | 0.7002 | 0.607 | 0.5418 | 0.5176 | 0.46
x1 = 0.5402 | 803.33 | 798.75 | 794.46 | 789.87 | 785.4 | 0.6142 | 0.5305 | 0.4663 | 0.4456 | 0.3948
x1 = 0.6066 | 803.54 | 798.87 | 794.49 | 789.85 | 785.23 | 0.538 | 0.4883 | 0.4135 | 0.4102 | 0.34
x1 = 0.6727 | 803.75 | 798.99 | 794.53 | 789.83 | 785.08 | 0.5271 | 0.4556 | 0.3743 | 0.3752 | 0.3138
x1 = 0.7387 | 803.97 | 799.12 | 794.58 | 789.82 | 784.92 | 0.5071 | 0.4444 | 0.3713 | 0.3573 | 0.2909
x1 = 0.8044 | 804.2 | 799.25 | 794.63 | 789.81 | 784.77 | 0.5079 | 0.4189 | 0.3607 | 0.3498 | 0.2754
x1 = 0.8698 | 804.43 | 799.4 | 794.68 | 789.8 | 784.62 | 0.4996 | 0.4217 | 0.3443 | 0.3334 | 0.28
x1 = 0.935 | 804.67 | 799.54 | 794.74 | 789.79 | 784.47 | 0.4722 | 0.3617 | 0.3135 | 0.3005 | 0.2769
x1 = 1 | 804.92 | 799.7 | 794.81 | 789.78 | 784.32 | 0.3956 | 0.2828 | 0.2666 | 0.2601 | 0.2545
